Target: T1, ACE, rat kidney preparations (Rattus norvegicus, UniProt P47820)
T1 construct: compound- or vehicle-dosed rat kidney preparations; from tissue; host or cells: kidney of male Sprague-Dawley rats
T1 sequence (P47820 36-1313): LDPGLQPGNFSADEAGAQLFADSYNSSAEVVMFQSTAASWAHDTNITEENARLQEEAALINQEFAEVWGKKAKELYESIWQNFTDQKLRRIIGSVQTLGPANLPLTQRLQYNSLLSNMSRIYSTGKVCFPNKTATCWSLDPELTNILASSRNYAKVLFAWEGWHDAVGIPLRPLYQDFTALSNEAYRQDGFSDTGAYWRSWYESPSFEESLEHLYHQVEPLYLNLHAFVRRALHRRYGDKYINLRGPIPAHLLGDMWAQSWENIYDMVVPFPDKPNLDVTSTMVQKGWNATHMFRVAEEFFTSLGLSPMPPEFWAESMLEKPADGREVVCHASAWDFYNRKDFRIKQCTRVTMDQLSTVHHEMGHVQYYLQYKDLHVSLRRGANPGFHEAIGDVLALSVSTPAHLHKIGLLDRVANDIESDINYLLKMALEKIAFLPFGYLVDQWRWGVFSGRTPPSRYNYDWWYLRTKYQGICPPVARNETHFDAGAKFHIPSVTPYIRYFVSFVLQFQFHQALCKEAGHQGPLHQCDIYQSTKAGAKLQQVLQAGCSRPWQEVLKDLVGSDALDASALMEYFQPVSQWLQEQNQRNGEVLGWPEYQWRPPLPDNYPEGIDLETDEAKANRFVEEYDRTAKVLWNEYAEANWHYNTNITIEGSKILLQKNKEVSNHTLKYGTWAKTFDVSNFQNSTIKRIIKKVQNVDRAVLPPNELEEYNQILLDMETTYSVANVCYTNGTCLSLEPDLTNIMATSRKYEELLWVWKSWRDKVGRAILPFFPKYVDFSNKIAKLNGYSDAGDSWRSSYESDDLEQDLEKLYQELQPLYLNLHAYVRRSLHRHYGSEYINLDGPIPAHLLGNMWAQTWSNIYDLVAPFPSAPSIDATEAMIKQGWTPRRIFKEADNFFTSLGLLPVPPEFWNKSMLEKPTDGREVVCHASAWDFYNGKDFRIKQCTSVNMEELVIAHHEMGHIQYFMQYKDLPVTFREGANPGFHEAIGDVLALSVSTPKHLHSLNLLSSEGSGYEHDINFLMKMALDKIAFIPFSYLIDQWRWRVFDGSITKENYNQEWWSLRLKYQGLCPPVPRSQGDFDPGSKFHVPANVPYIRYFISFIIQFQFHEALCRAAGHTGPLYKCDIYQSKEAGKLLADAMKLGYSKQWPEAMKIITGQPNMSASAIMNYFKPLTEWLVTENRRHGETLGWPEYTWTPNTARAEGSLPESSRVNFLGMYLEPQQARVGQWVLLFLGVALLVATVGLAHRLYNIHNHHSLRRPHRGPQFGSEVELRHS
Assay: radiometric ACE assay with tritiated hippuryl-glycyl-glycine
Type: biochemical
Conditions: 1 μM enalaprilat; compound- or vehicle-dosed rat kidney preparations

inhibition of radioactive product formation: Complete inhibition
SMILES: C[C@H](N[C@@H](CCc1ccccc1)C(=O)O)C(=O)N1CCC[C@H]1C(=O)O [enalaprilat]

— patent publication US5750521A, “Mercaptoacetylamide disulfide derivatives useful as inhibitors of enkephalinase and ACE” (Hoechst Marion Roussel Inc., priority 1996, dated 1998)
